In PMC5717258, “Bioaccumulation of pharmaceuticals and personal care product chemicals in fish exposed to wastewater effluent in an urban wetland” (Scientific Reports, 2017):
Like-named read-outs stand apart in the source and are kept apart here.

How the values were obtained:
[1] = cited from earlier work
[2] = Experimental: Plasma from 9 individual male fish (500 µL/individual) was pooled to yield 3 samples for PPCP analysis. […] Plasma from 6 individual carp (2.3–3.5 g) from each location was selected for PPCP analysis. […] Plasma samples were frozen (−80 °C) until analysis.
(§1) A total of 20 fish plasma samples from the pooled caged fish (7) and the wild fish (13) along with 12 water samples were selected for analysis. […] A full list of analytes is provided in Supplementary Information. Mass labelled^13C-, or deuterated surrogate internal standards were used for quantification of all analytes via the isotope dilution/surrogate standard quantitation method. Prior to extraction and/or clean-up procedures, aqueous samples were adjusted to pH 2.0, spiked with extraction surrogate standards, then adjusted to pH 4 using tetrasodium ethylenediamine-tetraacetate dihydrate. Plasma samples (2.3–2.5 g) were spiked with extraction surrogate standards, sonicated with 20 mL acetonitrile, then diluted with ultra-pure water to 200 mL. The extracts were cleaned up by solid phase extraction using Oasis HLB cartridges (Waters Ltd. Mississauga ON), filtered, and analyzed by liquid chromatography-electrospray ionization-tandem mass spectrometry (LC/ESI-MS/MS) in positive or negative ionization mode. The analysis of the complete list of analytes (SI Table S1) required a total of five instrumental runs.
(§2) Quality assurance steps included analysis of lab blanks for water and plasma along with matrix recovery spikes. […] Detection limits (DLs) were defined as lowest calibration level adjusted to the maximal sample size or 3 times the signal of the noise in the target channel converted to an equivalent sample, whichever was greater. […] Where analytes were detected in two or more samples of the same species or series of water samples, non-detect values were converted to ½ the DL value for reporting purposes.

in vivo = settings: for concentration at 21 days: goldfish (Carassius auratus)
Source text: Cages were visited weekly, and fish (13/cage) were fed during the visits (20 g/cage). All animal experiments were in accordance with CCAC guidance and approved by the GLLFAS-WSTD Animal Care Committee (Government of Canada). Further details on the caging and preparation of the fish and animal care protocols are provided in Simmons et al.[32]. […] A fourth site, Jordan Harbour (JH), a widening of 20 Mile Creek adjacent to Lake Ontario near Jordan ON, served as a reference site. Mass and fork length were measured and recorded. Plasma collection and storage is described in the SI. Plasma of caged goldfish was divided for proteome, metabolome and PPCP analysis. Due to limited volumes, pooled samples of plasma from 25 individual fish (50 µL/individual) was pooled to yield one sample from at each location for PPCP analysis.
as §1, §2

[3] = cited from earlier work; remark: listed apart in the source
[4] = Plasma bioaccumulation factor (BAFP), goldfish; format: in vivo, goldfish (Carassius auratus); settings: for BAFP, CPM2 goldfish caged: water sample of August 2012
Experimental: Bioaccumulation factor (BAFP) was calculated as concentration in fish plasma (ng/g × 1000) divided by concentration in water (ng/L). Two widely used modeling approaches for predicting organic contaminant bioaccumulation were assessed: the BCF-BAF model for whole body BAFs[53] and the fish-plasma concentration calculation of Huggett et al.[35] modified by Berninger et al.[54]. The latter involves estimating an octanol-water partition coefficient (Kow) adjusted for fraction ionized (log D), using the pKa value to adjust log Kow[54] taking into account the pH of CPM waters. Further information on the calculation of log D, blood-water partitioning (PBW), and plasma concentrations (FPC) is given in the SI.

[5] = design: method as in US EPA Chemistry Dashboard; settings: ref US EPA Chemistry Dashboard; cited from earlier work
[6] = Table S7, ref Meador et al. (2016)
[7] = wild goldfish sample 01, 2012, wet weight
[8] = wild goldfish sample 02, 2012, wet weight
[9] = wild goldfish sample 03, 2012, wet weight
[10] = CPM1, 07-2014, pooled plasma, wet weight
[11] = CPM2, 07-2014, pooled plasma, wet weight
[12] = CPM3, 07-2014, pooled plasma, wet weight
[13] = Jordan Harbour reference site, 07-2014, pooled plasma, wet weight
[14] = male, goldfish (Carassius auratus), in vivo

Molecule: Clc1ccc(COC(Cn2ccnc2)c2ccc(Cl)cc2Cl)c(Cl)c1 (stereo not shown) [Miconazole]
- Salmon (whole body) concentration [1, 6]: 1.8 ng/g

Molecule: CN(C)CCC=C1c2ccccc2CCc2ccccc21 [Amitriptyline]
- Goldfish plasma concentration, this study (range) ([2]; Table S7): 0.03 to 0.09 ng/g
- plasma concentration, CPM wild-01 [2, 7]: 0.029 ng/g
- plasma concentration, CPM wild-02 [2, 8]: 0.082 ng/g
- plasma concentration, CPM wild-03 [2, 9]: 0.091 ng/g
- concentration at 21 days (in vivo; in vivo, plasma concentration, CPM1 caged, CPM1, 07-2014, pooled plasma, wet weight): 0.029 ng/g
- concentration at 21 days (in vivo; in vivo, plasma concentration, CPM2 caged, CPM2, 07-2014, pooled plasma, wet weight): 0.029 ng/g
- concentration at 21 days (in vivo; in vivo, plasma concentration, CPM3 caged, CPM3, 07-2014, pooled plasma, wet weight): 0.031 ng/g
- concentration at 21 days (in vivo; in vivo, plasma concentration, JH caged, Jordan Harbour reference site, 07-2014, pooled plasma, wet weight): < 0.06 ng/g
- Salmon (whole body) concentration [1, 6]: 0.58 to 0.68 ng/g

Molecule: COc1cc(C)c(Cc2cnc(N)nc2N)cc1OC [Orm etoprim, Ormetoprim]
- Salmon (whole body) concentration [1, 6]: 44 to 1600 ng/g

Molecule: CN(C)CCC=C1c2ccccc2CC(O)c2ccccc21 (stereo not shown) [10-hydroxy-amitriptyline]
- plasma concentration, CPM-C 01 ([2]; Cootes carp 01, 2011, male, wet weight): 0.032 ng/g
- plasma concentration, CPM-C 2 ([2]; Cootes carp 2, Sep 27, 2011, male, wet weight): 0.053 ng/g
- plasma concentration, CPM-C 10 ([2]; Cootes carp 10, Sep 28, 2011, female, wet weight): 0.024 ng/g
- plasma concentration, CPM-C 13 ([2]; Cootes carp 13, Sep 28, 2011, female, wet weight): 0.047 ng/g
- plasma concentration, CPM-C 20 ([2]; Cootes carp 20, 2011, male, wet weight): 0.016 ng/g
- plasma concentration, CPM-C 36 ([2]; Cootes carp 36, Oct 3, 2011, female, wet weight): 0.025 ng/g
- Carp plasma concentration, this study (range) ([2]; Table S7): 0.02 to 0.05 ng/g
- Goldfish plasma concentration, this study (range) ([2]; Table S7): 0.01 to 0.06 ng/g
- plasma concentration, CPM wild-01 [2, 7]: 0.015 ng/g
- plasma concentration, CPM wild-02 [2, 8]: 0.036 ng/g
- plasma concentration, CPM wild-03 [2, 9]: 0.058 ng/g
- plasma concentration, CPM1 caged (in vivo; [10]): 0.033 ng/g
- plasma concentration, CPM2 caged (in vivo; [11]): 0.039 ng/g
- plasma concentration, CPM3 caged (in vivo; [12]): 0.015 ng/g
- plasma concentration, JH caged (in vivo; [13]): < 0.03 ng/g
- Sculpin (whole body) concentration ([3]; in vivo): 0.13 ng/g
- Salmon (whole body) concentration ([1]; in vivo): 0.09 ng/g

Molecule: Oc1cc(Cl)ccc1Oc1ccc(Cl)cc1Cl [T riclosan, Triclosan]
- Salmon (whole body) concentration [1, 6]: 26 ng/g

Molecule: CNCCN1C(=O)[C@H](OC(C)=O)[C@H](c2ccc(OC)cc2)Sc2ccccc21 [Desm eth yld ilt ia zem, Desmethyldiltiazem]
- Sculpin (whole body) concentration [3, 6]: 0.07 to 0.08 ng/g
- Salmon (whole body) concentration [1, 6]: 0.06 to 1.5 ng/g

Molecule: Cc1nnc2n1-c1ccc(Cl)cc1C(c1ccccc1)=NC2 [Alpr azolam, Alprazolam]
- Sculpin (whole body) concentration [3, 6]: 0.38 ng/g

Molecule: Nc1ccc(S(=O)(=O)Nc2ncccn2)cc1 [Sulfadiazine]
- Salmon (whole body) concentration [1, 6]: 0.88 ng/g

Molecule: CN1C(=O)CN=C(c2ccccc2)c2cc(Cl)ccc21 [Diazepam]
- Sculpin (whole body) concentration [3, 6]: 0.25 ng/g
- Salmon (whole body) concentration [1, 6]: 0.39 ng/g

Molecule: Cc1ccnc(NS(=O)(=O)c2ccc(N)cc2)n1 [Sulfam erazine, Sulfamerazine]
- Salmon (whole body) concentration [1, 6]: 0.51 ng/g

Molecule: CC(C)(c1ccc(O)cc1)c1ccc(O)cc1 [Bisphenol A]
- Sculpin (whole body) concentration [3, 6]: 3.6 to 4.5 ng/g
- Salmon (whole body) concentration [1, 6]: 3.3 to 41 ng/g

Molecule: O=C(O)c1cn(C2CC2)c2cc(N3CCNCC3)c(F)cc2c1=O [Ciproﬂoxacin, Ciprofloxacin]
- Sculpin (whole body) concentration [3, 6]: 17 ng/g

Molecule: CN(C)CCOC(c1ccccc1)c1ccccc1 [Diphenhydramine]
- BAFP, CPM1 goldfish caged [4]: 7 L/kg
- BAFP, CPM2 goldfish caged [4]: 5 L/kg

Molecule: C[C@H](O)C(=O)Nc1c(I)c(C(=O)NC(CO)CO)c(I)c(C(=O)NC(CO)CO)c1I [Iopamidol]
- plasma concentration, carp, this study (mean) ([2]; in vivo): < mdl
- plasma concentration, CPM wild-01 [2, 14]: 7.85 ng/g
- plasma concentration, CPM wild-02 [2, 14]: 8.15 ng/g
- plasma concentration, CPM wild-03 [2, 14]: 8.35 ng/g
- plasma concentration, goldfish, this study (mean) [2, 14]: 8.12 ng/g wet weight or ng/mL for plasma
- wild goldfish plasma, range of concentrations [2, 14]: 8.2 to 20.9 ng/g
- concentration at 21 days (in vivo; in vivo, caged goldfish plasma, range of concentrations): 7.85 to 8.35 ng/g
- concentration at 21 days (in vivo; in vivo, plasma concentration, CPM1 caged): 20.9 ng/g
- concentration at 21 days (in vivo; in vivo, plasma concentration, CPM2 caged): 17.6 ng/g
- concentration at 21 days (in vivo; in vivo, plasma concentration, CPM3 caged): 8.2 ng/g
- concentration at 21 days (in vivo; in vivo, plasma concentration, JH caged): < 16 ng/g
- log Kow [5]: -2.21
- BAFP, CPM1 goldfish caged [4]: 75 L/kg
- BAFP, CPM2 goldfish caged [4]: 50 L/kg
- BAFP, CPM3 goldfish caged ([4]; CPM3): 13 L/kg
- BAFP at CPM3, wild goldfish, average ([4]; conc in fish plasma/conc in water): 38 L/kg
- BAFP at CPM3, wild goldfish, range ([4]; range based on range of plasma concentrations): 37 to 40 L/kg

Molecule: CNCCC(Oc1ccc(C(F)(F)F)cc1)c1ccccc1 (stereo not shown) [Fluoxetine]
- Salmon (whole body) concentration [1, 6]: 4.9 ng/g

Molecule: COc1cc(NS(=O)(=O)c2ccc(N)cc2)nc(OC)n1 [Sulfadim ethoxine, Sulfadimethoxine]
- Salmon (whole body) concentration [1, 6]: 0.34 to 17 ng/g

Molecule: CC1=C\[C@@H](O)CC(=O)Cc2nc(co2)C(=O)N2CCC=C2C(=O)O[C@H](C(C)C)[C@H](C)/C=C/C(=O)NC\C=C\1 [Virg in iam ycin M1, Virginiamycin M1]
- Sculpin (whole body) concentration [3, 6]: 8 to 34 ng/g
- Salmon (whole body) concentration [1, 6]: 10 ng/g

Molecule: CC[C@H]1OC(=O)[C@H](C)[C@@H](O[C@H]2C[C@@](C)(OC)[C@@H](O)[C@H](C)O2)[C@H](C)[C@@H](O[C@@H]2O[C@H](C)C[C@H](N(C)C)[C@H]2O)[C@](C)(O)C[C@@H](C)CN(C)[C@H](C)[C@@H](O)[C@]1(C)O [Azithrom yc in, Azithromycin]
- Salmon (whole body) concentration [1, 6]: 1.7 ng/g

Molecule: Anhydrochlortetracycline
- plasma concentration, CPM wild-01 [2, 7]: < 2.94 ng/g
- plasma concentration, CPM wild-02 [2, 8]: < 3.18 ng/g
- plasma concentration, CPM wild-03 [2, 9]: < 3.13 ng/g
- plasma concentration, CPM1 caged (in vivo; [10]): 2.97 ng/g
- plasma concentration, CPM2 caged (in vivo; [11]): < 2.92 ng/g
- plasma concentration, CPM3 caged (in vivo; [12]): < 3.07 ng/g
- plasma concentration, JH caged (in vivo; [13]): < 3.0 ng/g

Molecule: COc1ccc(CCNCCCC(C#N)(c2ccc(OC)c(OC)c2)C(C)C)cc1OC (stereo not shown) [Norverapam il, Norverapamil]
- Sculpin (whole body) concentration [3, 6]: 0.20 to 0.30 ng/g
- Salmon (whole body) concentration [1, 6]: 0.12 to 0.47 ng/g

Molecule: NC(=O)N1c2ccccc2C=Cc2ccccc21 [carbamazepine]
- detection in fish plasma (in vivo; in vivo): not detected
